From patent publication US11965161B2, “Methods and compositions for sensitization of tumor cells to immune therapy” (Regeneron Pharmaceuticals, Inc., priority 2020, dated 2024) come the findings set out here.

Assay [1] relates to ZR-75-1 human breast cancer cells. The assay is described as follows: Western blots of ZR-75-1 cells (p62, caspase-8). Type of assay: cell-based. Particulars: 5 μM inhibitor, 16 hours; for p62 levels: ZR-75-1 cells; for TNFα-induced activation of caspase-8: human breast cancer cells ZR-75-1, 10 ng/ml TNFα. As for the experimental part:
(§1) Whole cell lysates were prepared in tris-glycine SDS sample buffer (ThermoFisher) containing 5% 2-mercaptoethanol. Western blotting was performed by conventional techniques using tris-glycine polyacrylamide SDS gels (ThermoFisher) and PVDF membranes (BioRad). Blots were blocked in 5% milk powder and 0.5% Tween-20 in TBS and then incubated overnight with primary antibodies. After addition of secondary antibodies, membranes were incubated with SuperSignal West Pico Plus or Femto substrate (ThermoFisher) and luminescence was captured with a C300 imager (Azure Biosystems). Primary antibodies against TAK1, Rbck1, Re1A p65, Rb1cc1, Atg12, cleaved caspase-8, procaspase-8, RIPK1, RIPK1 phospo-Ser321, RIPK1 phospho-Ser166, Iκ-Bα, A20, p62, phospho-p65, LC3B, TNFR1 (CST), Atg9a (Novus), cIAP1 (Enzo), β2M (ThermoFisher), FADD and ICAM (Abcam) were used. Horseradish peroxidase-conjugated β-Actin antibody and secondary antibodies against mouse IgG, rabbit IgG and goat IgG were from Santa Cruz Biotechnology.
(In general: A western blot detects proteins with antibodies after separation by electrophoresis.)

Assay [2] concerns multiple mouse and human cancer cell lines. The assay is described as follows: TNFα-mediated killing in a panel of cancer cell lines with or without autophagy inhibitor. Particulars: 10 ng/ml TNFα, 5 μM inhibitor, 24 hours, EMT6, LL/2, CT26, Colon26, BT-20, Me-180, MDA-MB-361, ZR-75-1. Type of assay: cell-based. On the procedure: (§2) The effects of TNFα, TRAIL, doxorubicin or paclitaxel on cell viability were assessed following 24 hour incubations at the indicated concentrations. The effects of 5 μM autophinib or SAR-405 on TNFα (10 ng/ml) or TRAIL (10 ng/ml or 50 ng/ml) induced killing were assessed following 24 hour incubations unless otherwise indicated. In all cases, cell viability was measured using CCK8 cell counting kit-8 (CCK-8) reagent, which is reduced by dehydrogenase activities in cells to give a yellow-colored formazan dye (Dojindo). The absorbance was measured using a SpectraMax M3 microplate reader (Molecular Devices).

Assay [3] relates to ZR-75-1 human breast cancer cells. Kind of assay: CD3 bispecific antibody-induced killing of ZR-75-1 cells by human T cells. Type of assay: cell-based. Particulars: 12 ng/ml bispecific antibody, 5 μM SAR-405, 24 hours. From the text: CD8^+ T cells were isolated from spleens and lymph nodes of 6-8 week old male OT-1 mice. These mice contain transgenic inserts for mouse Tcra-V2 and Tcrb-V5 genes. The transgenic T cell receptor was designed to recognize ovalbumin peptide residues 257-264 in the context of H-2Kb MHC class I protein. In some experiments, human CD8+ T cells were isolated from PBMCs. T cells were activated in vitro with CD3/CD28 beads at a 1:2 bead:cell ratio for 2-3 days. T cells were activated in RPMI-1640 medium containing 20 ng/ml mouse IL-2, 10% heat inactivated fetal bovine serum, 20 mM HEPES, 2 mM L-glutamine, 1 mM sodium pyruvate, 0.05 mM 2-mercaptoethanol and 50 U/ml penicillin/streptomycin. For human tumor cell killing experiments using CD3 bispecific antibody, human T cells were isolated from peripheral blood mononuclear cells (PBMCs) (ReachBio) using Dynabeads Untouched Human T Cells Kit (Thermo Fisher Scientific).
Human ZR-75-1 cells were seeded at 100,000 cells per 24 well. After 24 hours, cells were incubated with activated CD8^+ T cells (isolated from human PBMCs) at the indicated E:T ratios for 24 hours in the presence of 12 ng/ml breast tumor antigen×CD3 or control (doesn't bind to ZR-75-1 cells) bispecific antibodies in the absence or presence of 5 μM autophagy inhibitor SAR-405.

The test system of assay [4] is HCT-116 and HeLa human cancer cells. The assay is described as follows: TNFα- and TRAIL-mediated killing of human cancer cells with or without autophinib, cell viability. Type of assay: cell-based. Conditions: 5 μM autophinib, 24 hours. On the procedure:
as §2

Assay [5] concerns MC38 cells. The assay is described as follows: Western blots of MC38 cell lysates (caspase-8, p62, Iκ-Bα, phospho-S6). Particulars: 5 μM autophinib. Format: cell-based, mouse. As for the experimental part:
as §1

The subject of assay [6] is MC38 cells. The assay is described as follows: TNFα-induced killing of MC38 cells, cell viability (CCK-8). Type of assay: cell-based, mouse. Particulars: for TNFα-mediated killing in Rb1cc1 KO cells: Rb1cc1 KO MC38 cells, 25 μM z-VAD-FMK or 50 μM Nec-1. On the procedure: as §2
In assay [7] the test system is HCT-116 and HeLa human cancer cells. Kind of assay: Western blots of HCT-116 and HeLa cells after TRAIL with or without autophinib. Format: cell-based. Conditions: human cancer cells (HCT-116, HeLa), 10 or 50 ng/ml TRAIL, 24 hours. On the procedure: as §1
Assay [8] has as its system CT26, B16F10, 4T1, EMT6, MC38 tumor cell lines. The assay is described as follows: TNFα-induced caspase-8 activation and apoptosis in a panel of tumor cell lines. Type of assay: cell-based, mouse. Conditions: 24 hours. On the procedure: as §2
Whole cell lysates were prepared in tris-glycine SDS sample buffer (ThermoFisher) containing 5% 2-mercaptoethanol. Western blotting was performed by conventional techniques using tris-glycine polyacrylamide SDS gels (ThermoFisher) and PVDF membranes (BioRad). Blots were blocked in 5% milk powder and 0.5% Tween-20 in TBS and then incubated overnight with primary antibodies. After addition of secondary antibodies, membranes were incubated with SuperSignal West Pico Plus or Femto substrate (ThermoFisher) and luminescence was captured with a C300 imager (Azure Biosystems). […]

“Also recorded” adds a separate entry of the source. Residues, ends and D or L forms follow the SMILES beside them. *: point of attachment. Cbz = O=C(OCc1ccccc1)*; CH2F = FC*

`C[C@@H]1COCCN1c1cc(=O)n2c(n1)N(Cc1cncc(Cl)c1)[C@H](C(F)(F)F)CC2` [SAR405]: in assay [1], the p62 levels entry was “significantly increased” and the “TNFα-induced activation of caspase-8” value is given as “enhanced”. Besides, the “killing by TNFα in multiple mouse and human cancer cell lines” value in assay [2] is “significantly increased”. The “killing by TNFα in multiple mouse and human cancer cell lines” value in assay [2] (listed as SAR-405) is reported as “sensitizes”. Moreover, the “tumor cell killing by human T cells with breast tumor antigen×CD3 bispecific antibody” value in assay [3] is “significantly increased”.

In the case of `Cc1cc(Nc2cc(Cl)nc(Oc3ccc([N+](=O)[O-])cc3)n2)n[nH]1` [autophinib], in assay [4] (HCT-116 (10 ng/ml TNFα or TRAIL), HeLa (50 ng/ml TRAIL)), the “sensitization to TNFα- and TRAIL-mediated killing” value is reported as “sensitizes”. Moreover, the “induction of apoptosis by TRAIL” value in assay [4] (human cancer cells (HCT-116, HeLa), 10 or 50 ng/ml TRAIL) is on record as “increased”. In the assay on MC38 cells [5] (10 ng/ml TNFα 30 minutes), the “TNFα-mediated degradation of Iκ-Bα” value is listed as “did not affect”. For the same molecule, the “TNFα-mediated caspase-8 activation” value in the assay with MC38 cells [5] (10 ng/ml TNFα 4 hours) is “increased”. The “levels of p62” value with MC38 cells [5] (4 hours) is on record as “significantly increased”. Also, the “TNFα-mediated killing (relative cell viability)” value with MC38 cells [6] (MC38 cells, 10 ng/ml TNFα, 5 μM autophinib, 16 hours) is “increased”. Also, in assay [1], the p62 levels result is recorded as “significantly increased” and the “TNFα-induced activation of caspase-8” value is given as “enhanced”. Further, the “killing by TNFα in multiple mouse and human cancer cell lines” value in assay [2] was “significantly increased; also recorded: sensitizes”. Besides, in assay [7], the “activation of caspase-8 by TRAIL” value was “increased”.

For `CN1C(=O)C(Cc2c[nH]c3ccccc23)NC1=S` (stereo not drawn) [necropsis inhibitor], the “TNFα-mediated killing in Rb1cc1 KO cells” value with MC38 cells [6] (24 hours) is “had no effect”.

Turning to `COC(=O)C[C@H](NC(=O)[C@H](C)NC(=O)[C@@H](NC(=O)OCc1ccccc1)C(C)C)C(=O)CF` [z-VAD-FMK] (Cbz-Val-Ala-Asp(OMe)-CH2F), the “TNFα killing of MC38 cells in presence of caspase inhibitor” value with MC38 cells [6] (25 μM z-VAD-FMK, 10 ng/ml TNFα, 24 hours) is “blocked”. In addition, the “TNFα-mediated killing in Rb1cc1 KO cells” value with MC38 cells [6] (24 hours) was “blocked”.

B1: TNFα: Recombinant mouse and human TNFα from PeproTech (protein)
chain: LRSSSQNSSDKPVAHVVANHQVEEQLEWLSQRANALLANGMDLKDNQLVVPADGLYLVYSQVLFKGQGCPDYVLLTHTVSRFAISYQEKVNLLSAVKSPCPKDTPEGAELKPWYEPIYLGGVFQLEKGDQLSAEVNLPKYLDFAESGQVYFGVIAL
In the case of B1, the “MC38 cell death by soluble TNFα” value in the assay with MC38 cells [6] (10 ng/ml TNFα, 24 hours) was “promoted MC38 cell death”. Besides, the “killing by TNFα” value in assay [8] (CT26, B16F10, 4T1 cells) is on record as “not killed”. For the same molecule, the “TNFα-induced caspase-8 activation and apoptosis” value in assay [8] (EMT6 and MC38 cells) was “exhibited TNFα-induced caspase-8 activation and apoptosis”.
